Series [1] can be described thus: Solubility of dppe and dppe derivatives G{m,x} in perfluorinated and non-fluorinated solvents. The format is physicochemical. The settings on record: for solubility at room temperature, FC-72: FC-72: mixture of perfluorinated hexanes.
Series [2] is described as follows: Hydrogenation of 1-octene under single phase conditions in α,α,α-trifluorotoluene. The following applies: [Rh] 4.0 mM, [1-octene] 1.46 M; T = 80° C., p(H2) = 1 bar, α,α,α-trifluorotoluene. On the procedure: To be able to directly compare the activities of fluorous derivatives H{1,6} and H{1,8} with non-fluorous [P(C6H4-4-SiMe3)3]3RhCl (H{0}) and the conventional Wilkinson catalyst (PPh3)3RhCl, homogeneous hydrogenation of 1-octene were carried out under single phase conditions in the hybrid solvent α,α,α-trifluorotoluene at atmospheric H2 pressures. Highest rates of hydrogen uptake (14.2 mol.L^−1.h^−1) were measured for 1c at relatively high rhodium and olefine concentrations (entry 2, Table 7). Under these conditions a zero-order dependence in [1-octene] was found up to ca 80% conversion resulting in a linear conversion versus time plot. In all other experiments ([Rh]=4.0-8.0 mM, [1-octene]0=1.46 M) rates of hydrogen uptake were lower (<11 mol.L^−1.h^−1) and conversion versus time plots corresponded to a rate law -d[1-octene]/dt=kobs.[1-octene] for >98% conversion allowing to evaluate catalyst activity in terms of the observed first order rate constant kobs. Since for these experiments the rates of dihydrogen uptake were well below the maximum value obtained in entry 2, diffusion limitation of H2 can be excluded. In addition to kobs, turn over frequencies (TOF in mol.mol^−1.h^−1) were derived from the tangent of a 4^thorder polynomal fit to conversion versus time plots at 25% conversion and serve as a measure of catalyst activity independent of any assumed kinetic relationship with substrate.
Catalytic reactions were carried out under single phase conditions in CF3C6H5 at 80° C. under 1 bar of hydrogen pressure. After >90% conversion (monitored by the H2 uptake) volatiles were distilled off and analyzed by GC. Activities (TOF) were determined for 25% conversion.

A short description of series [3]: Leaching of rhodium and phosphorus into the organic product phase and partitioning of rhodium species (ICP-AAS). The settings on record: fluorous biphasic product mixture from hydrogenation of 1-octene. The source says: Rhodium leaching into the organic phase (as determined by ICP-AAS) was low. On average 0.12% of Rh per cycle was lost corresponding to a rhodium concentration of 3 ppm (by weight) in the product phase. Over 9 cycles only 1% of rhodium was lost despite of the phase separation method used. Leaching was higher for less fluorous pre-catalyst H{1,6}: 0.3% (6 ppm) of rhodium was present in the organic phase after phase separation.
The amount of leached rhodium allows to calculate the average partition coefficients (P) of the rhodium species present during phase separation (Table 6). […] Chem. Soc. 1999, 121, 2696-2704.). […] Chem. Int. Ed. Engl. 1997, 36, 1610-1612).
The retention of free uncoordinated fluorous phosphine can be used for recycling the intact catalyst system.
(§1) Only catalysts prepared through method 1 were used. Catalytic reactions were carried out under single phase fluorous conditions in c-CF3C6F11 (2 mL) at 80° C. After >90% conversion (monitored by the H2 uptake) the homogeneous reaction mixture was cooled to 0° C. and the upper organic layer was siphoned of. In between cycles the fluorous layer was kept under H2 atmosphere. By warming up to 80° C. and addition of a fresh portion of 1-octene (12.74 mmol) a new cycle was started. The organic phases resulting from the first cycle were analyzed by GC and ICP-AAS.

Series [4] can be described thus: Rhodium catalyzed hydrogenation of 1-octene under single phase fluorous conditions with catalyst recycling. The following applies: for TOF50% / TON (cumulative) / conv.: p(H2) = 1 bar. On the procedure: (Table 5). In this respect compounds H{1,6} and H{1,8} are true fluorous equivalents of the classical Wilkinson's hydrogenation catalyst (PPh3)3RhCl. The hydrogenation products were readily isolated from the catalyst layer by cooling of the reaction mixture to 0° C. followed by phase separation of the resulting biphasic system. In this way hydrogenation of 1-octene afforded n-octane in >95% yield (GC, GC-MS). Less than 4.3% internal olefins resulting from isomerization were present. In case of H{1,8} it was possible to recycle the fluorous catalyst layer multiple times allowing high turnover numbers and high conversions per cycle (Table 5 and FIG. 5).
20. Rhodium Catalyzed Hydrogenation Reactions
The catalytic experiments were carried out in a 30 mL Schienk flask, under dihydrogen atmosphere (1 bar). The catalyst was either dissolved in a hydrogen saturated toluene or perfluoro solvent and the mixture was stirred with a magnetic stirring bar (900 rpm). The olefinic substrate was added after initial dihydrogen uptake had ceased. The dihydrogen uptake was monitored using two mineral oil filled gas burettes. During the hydrogenation reactions one burette was opened to the reaction vessel while the other was recharged with dihydrogen.
as §1

Setting [5] is: cycle 1, c-CF3C6F11, 80° C., [1-octene]/[Rh] = 559, [Rh]0 = 0.0060M.
[6] abbreviates: cycle 1, c-CF3C6F11, 80° C., [1-octene]/[Rh] = 365.
The mark [7] stands for this setting: cycle 2, c-CF3C6F11, 80° C., [1-octene]/[Rh] = 365.
[8] abbreviates: cycle 3, c-CF3C6F11, 80° C., [1-octene]/[Rh] = 365.
Setting [9] is: cycle 4, c-CF3C6F11, 80° C., [1-octene]/[Rh] = 365.
[10] abbreviates: cycle 5, c-CF3C6F11, 80° C., [1-octene]/[Rh] = 365.
Setting [11] is: cycle 6, c-CF3C6F11, 80° C., [1-octene]/[Rh] = 365.
The mark [12] stands for this setting: cycle 7, c-CF3C6F11, 80° C., [1-octene]/[Rh] = 365.
Where [13] appears, read: cycle 8, c-CF3C6F11, 80° C., [1-octene]/[Rh] = 365.
The mark [14] stands for this setting: cycle 9, fresh c-CF3C6F11 added as compensation for losses of fluorous solvent, 80° C.

Marks after values point to notes of the source that are not given here.

The values that follow come from patent US6458978B1, “Fluorous phosphines and process for their preparation” (Atofina Vlissingen B.V., priority 1998, dated 2002).

For the molecule `C[Si](CCC(F)(F)C(F)(F)C(F)(F)C(F)(F)C(F)(F)C(F)(F)F)(CCC(F)(F)C(F)(F)C(F)(F)C(F)(F)C(F)(F)C(F)(F)F)c1ccc(P(CCP(c2ccc([Si](C)(CCC(F)(F)C(F)(F)C(F)(F)C(F)(F)C(F)(F)C(F)(F)F)CCC(F)(F)C(F)(F)C(F)(F)C(F)(F)C(F)(F)C(F)(F)F)cc2)c2ccc([Si](C)(CCC(F)(F)C(F)(F)C(F)(F)C(F)(F)C(F)(F)C(F)(F)F)CCC(F)(F)C(F)(F)C(F)(F)C(F)(F)C(F)(F)C(F)(F)F)cc2)c2ccc([Si](C)(CCC(F)(F)C(F)(F)C(F)(F)C(F)(F)C(F)(F)C(F)(F)F)CCC(F)(F)C(F)(F)C(F)(F)C(F)(F)C(F)(F)C(F)(F)F)cc2)cc1` [G{2,6}], in series [1], the “solubility at room temperature, THF” value is listed as “+ (+: >0.1 g/ml)” and the “solubility at room temperature, FC-72” value is “+ (+: >0.1 g/ml)”.

Turning to `C[Si](C)(CCC(F)(F)C(F)(F)C(F)(F)C(F)(F)C(F)(F)C(F)(F)F)c1ccc([PH](c2ccc([Si](C)(C)CCC(F)(F)C(F)(F)C(F)(F)C(F)(F)C(F)(F)C(F)(F)F)cc2)(c2ccc([Si](C)(C)CCC(F)(F)C(F)(F)C(F)(F)C(F)(F)C(F)(F)C(F)(F)F)cc2)[Rh]([Cl])([PH](c2ccc([Si](C)(C)CCC(F)(F)C(F)(F)C(F)(F)C(F)(F)C(F)(F)C(F)(F)F)cc2)(c2ccc([Si](C)(C)CCC(F)(F)C(F)(F)C(F)(F)C(F)(F)C(F)(F)C(F)(F)F)cc2)c2ccc([Si](C)(C)CCC(F)(F)C(F)(F)C(F)(F)C(F)(F)C(F)(F)C(F)(F)F)cc2)[PH](c2ccc([Si](C)(C)CCC(F)(F)C(F)(F)C(F)(F)C(F)(F)C(F)(F)C(F)(F)F)cc2)(c2ccc([Si](C)(C)CCC(F)(F)C(F)(F)C(F)(F)C(F)(F)C(F)(F)C(F)(F)F)cc2)c2ccc([Si](C)(C)CCC(F)(F)C(F)(F)C(F)(F)C(F)(F)C(F)(F)C(F)(F)F)cc2)cc1` [H{1,6}, (D{1,6})3RhCl], in series [2], the “TOF(25%), turn over frequency at 25% conversion” value is 1110 h⁻¹; the “TON (mole of olefin/mole of Rh)” value amounted to 363; the conversion amounted to 99%; the “kobs (first order rate constant)” value was 4.2(1) h^−1. Moreover, in series [3] (T = 0° C.), the “Average partitioning coefficient P of rhodium species” value (“Average partitioning coefficient P” for short) was 293^b. Besides, the “Average partitioning coefficient P” value in series [3] (T = 25° C.) was 76^b. Moreover, in series [4] (setting [5]), the TOF50% came to 298 h⁻¹ and the “TON (cumulative)” value is recorded as 531. The molecule also showed a conv. in series [4] (cycle 1, c-CF3C6F11, 80° C., containing 10 mol % of D{1,6}, [1-octene]/[Rh] = 559, [Rh]0 = 0.0060M) of 95%.

Regarding `C[Si](C)(CCC(F)(F)C(F)(F)C(F)(F)C(F)(F)C(F)(F)C(F)(F)C(F)(F)C(F)(F)F)c1ccc(P(CCP(c2ccc([Si](C)(C)CCC(F)(F)C(F)(F)C(F)(F)C(F)(F)C(F)(F)C(F)(F)C(F)(F)C(F)(F)F)cc2)c2ccc([Si](C)(C)CCC(F)(F)C(F)(F)C(F)(F)C(F)(F)C(F)(F)C(F)(F)C(F)(F)C(F)(F)F)cc2)c2ccc([Si](C)(C)CCC(F)(F)C(F)(F)C(F)(F)C(F)(F)C(F)(F)C(F)(F)C(F)(F)C(F)(F)F)cc2)cc1` [G{1,8}], in series [1], the “solubility at room temperature, THF” value is “− (−: <0.01 g/ml)”; the “solubility at room temperature, toluene” value was “− (−: <0.01 g/ml)”; the “solubility at room temperature, FC-72” value was “− (−: <0.01 g/ml)”.

Turning to `C[Si](C)(C)c1ccc(P(CCP(c2ccc([Si](C)(C)C)cc2)c2ccc([Si](C)(C)C)cc2)c2ccc([Si](C)(C)C)cc2)cc1` [G{0}, (Me3SiC6H4-4)2PCH2CH2P(C6H4SiMe3-4)2, reference compound], in series [1], the “solubility at room temperature, THF” value is on record as “+ (+: >0.1 g/ml)” and the “solubility at room temperature, FC-72” value is given as “− (−: <0.01 g/ml)”.

On to `C[Si](C)(CCC(F)(F)C(F)(F)C(F)(F)C(F)(F)C(F)(F)C(F)(F)C(F)(F)C(F)(F)F)c1ccc(P(c2ccc([Si](C)(C)CCC(F)(F)C(F)(F)C(F)(F)C(F)(F)C(F)(F)C(F)(F)C(F)(F)C(F)(F)F)cc2)c2ccc([Si](C)(C)CCC(F)(F)C(F)(F)C(F)(F)C(F)(F)C(F)(F)C(F)(F)C(F)(F)C(F)(F)F)cc2)cc1.C[Si](C)(CCC(F)(F)C(F)(F)C(F)(F)C(F)(F)C(F)(F)C(F)(F)C(F)(F)C(F)(F)F)c1ccc(P(c2ccc([Si](C)(C)CCC(F)(F)C(F)(F)C(F)(F)C(F)(F)C(F)(F)C(F)(F)C(F)(F)C(F)(F)F)cc2)c2ccc([Si](C)(C)CCC(F)(F)C(F)(F)C(F)(F)C(F)(F)C(F)(F)C(F)(F)C(F)(F)C(F)(F)F)cc2)cc1.C[Si](C)(CCC(F)(F)C(F)(F)C(F)(F)C(F)(F)C(F)(F)C(F)(F)C(F)(F)C(F)(F)F)c1ccc(P(c2ccc([Si](C)(C)CCC(F)(F)C(F)(F)C(F)(F)C(F)(F)C(F)(F)C(F)(F)C(F)(F)C(F)(F)F)cc2)c2ccc([Si](C)(C)CCC(F)(F)C(F)(F)C(F)(F)C(F)(F)C(F)(F)C(F)(F)C(F)(F)C(F)(F)F)cc2)cc1.[Cl][Rh]` [H{1,8}, (D{1,8})3RhCl], for which, in series [2], the “TOF(25%), turn over frequency at 25% conversion” value is 870 h⁻¹. In series [2], the “TON (mole of olefin/mole of Rh)” value came out at 355. In addition, in series [2], the conversion is 99%. Also, the “kobs (first order rate constant)” value in series [2] is 3.2(1) h^−1. The “Average partitioning coefficient P” value in series [3] (T = 0° C.) was 1052^c. Further, the “Drop of catalyst activity” value in series [4] (9th cycle, amount of c-C6F11CF3 restored to its initial volume) is reported as 19%. Also, the TOF50% in series [4] (setting [6]) was 177 h⁻¹; in series [4] (setting [7]), 212 h⁻¹; in series [4] (setting [8]) it was 261 h⁻¹; in series [4] (setting [9]) it was 277 h⁻¹; in series [4] (setting [10]) it was 304 h⁻¹; in series [4] (setting [11]) it was 397 h⁻¹. Moreover, the TOF50% in series [4] (setting [12]) was 507 h⁻¹; in series [4] (setting [13]) it was 617 h⁻¹; in series [4] (setting [14]), 142 h⁻¹. Further, the “TON (cumulative)” value in series [4] (setting [6]) is 337; in series [4] (setting [7]), 688; in series [4] (setting [8]), 1048; in series [4] (setting [9]) it was 1383; in series [4] (setting [10]), 1747; in series [4] (setting [11]) it was 2100. The figures for the “TON (cumulative)” value in series [4] (setting [12]), in series [4] (setting [13]) and in series [4] (setting [14]) were 2444, 2808 and 3117, respectively. In addition, the conv. amounted to 92% in series [4] (cycle 1, c-CF3C6F11, 80° C., [1-octene]/[Rh] = 365, [Rh] = 0.0087M in the initial cycle); 96% in series [4] (setting [7]); 99% in series [4] (setting [8]); 92% in series [4] (setting [9]); 99.8% in series [4] (setting [10]); 96.8% in series [4] (setting [11]). Further, the values for the conv. in series [4] (setting [12]), in series [4] (setting [13]) and in series [4] (setting [14]) were 94%, 99.7% and 85%, respectively.
